For data set [1], the system named is rats. Briefly: GLP auditory safety study after single IT administration. The class given is in vivo, rat. Here is the method:
Gross observations were recorded, and selected organs were weighed.

Data set [2] deals with HEI-OC1 cells. Briefly: release of mitochondrial Cytc in HEI-OC1 cells with CisPt (flow cytometry). The conditions noted are these: HEI-OC1 cells, CisPt alone vs pre-incubated with LPT99, flow cytometry. Format: cell-based. Here is the method:
Flow cytometry was also used to characterize the effect of LPT99 in the release of mitochondrial Cytc in HEI-OC1 cells in vitro with CisPt prevention.
The effect of LPT99 on proliferation of non-apoptotic cells was studied. A549 cells were cultured in the presence of LPT99 for up to 6 days; the cell number was monitored by flow cytometry, and doubling time was calculated.
Background: In flow cytometry, cells or beads pass a laser one at a time.

On to gentamicin [reference compound], for which the weight-normalized heart weights entry in data set [1] (male rats, 400 mg/mL gentamicin, Day 14, vs saline controls) is on record as “statistically significant (p≤0.05) increased weight-normalized heart weights”. For the same compound, the “otoscopic examination of the tympanic membranes (erythema, edema, wounds)” value in data set [1] (rat, single IT, Days 1, 7, 14, vs control) is given as “increases in otoscopic scores”. Moreover, in data set [1] (rat, single bilateral IT 30 μL per ear, 14-day study), the “mortalities, clinical abnormalities, body weight, food intake, clinical pathologies” value is on record as “no LPT99- or gentamicin-related mortalities”.

Regarding `N.N.[Cl][Pt][Cl]` [CisPt, cisplatin, reference compound], the “release of mitochondrial Cytc” value in data set [2] is recorded as 28%±6.6%.

Source of the values: patent US10561736B1, “Apoptosis inhibitor formulations for prevention of hearing loss” (Spiral Therapeutics, Inc., priority 2019, dated 2020).
